From patent EP3204002B1, “PHARMACEUTICAL COMBINATION FOR THE TREATMENT OF TUMORS” (International Society for Drug Development S.r.l., priority 2014, dated 2016)
Structures can show the parent of a compound that is named as a salt.

Experiments:
Type in all cases: cell-based, human
[1] = system: U118-MG; assay: cell viability / cytotoxicity by WST-1 colorimetric assay in U118-MG; details: alone, 10µM and 100µM
Description: (§1) The cell line ANGM-CSS and U118-MG were used, human glioblastoma multiforme (GBM) lines. The ANGM-CSS cell line (ECACC cat n°08040401) was supplied by Dr. Angelo Notarangelo, Laboratorio di Citogenetica, IRCCS Casa Sollievo della Sofferenza, San Giovanni Rotondo (FG), Italy. The U118-MG line was purchased from ATCC, Manassas, VA, USA. The culture medium consisted of DMEM:HAMS F12 (1:1) (Sigma-Aldrich) with the addition of 2mM of L-Glutamine (Sigma Aldrich), 10% Fetal Bovine Serum (FBS, Sigma-Aldrich), 100 units/ml penicillin and 100µg/ml streptomycin (P/S) at 37°C in an atmosphere with 5% CO2.
(§2) The cytotoxicity was evaluated via a colorimetric assay, using WST-1 (4-[3-(4-iodophenyl)-2-(4-nitrophenyl)-2H-5-tetrazolium]-1,3-benzene disulfonate) (Roche, Mannheim, Germany). The inhibition of the cell proliferation is expressed as a percentage of the absorbance at 450nm relative to the non-treated cells in culture. The absorbance was measured by an Enspire microplate reader (PerkinElmer, Wellesley, MA, USA).
(§3) The compound 1 was tested on the two cell lines of human glioblastoma multiforme ANGM-CSS and U118MG, which are resistant to temozolomide.

[2] = system: ANGM-CSS; assay: cell viability / cytotoxicity by WST-1 colorimetric assay in ANGM-CSS; details: alone
Description: as §1, §2, §3

[3] = system: U87MG cells; assay: cell viability by MTS assay in U87MG cells; details: 72 hours
Description: The human cells of glioblastoma multiforme U87MG were obtained from the national cancer research institute in Genoa (Italy) and were monitored to determine the DNA profiling. The U87MG cells were cultivated in RPMI medium with the addition of 10% FBS, 2 mM of L-glutamine, 100 U/ml of penicillin, […] of streptomycin and 1% of non-essential amino acids at 37°C in 5% CO2. The cells were used in the successive experiments up to the fourth detaching passage.
The U87MG cells were grown at 37°C in a humid atmosphere in the presence of 5% CO2. and were placed in a plate at a density of 3,000 cells/well. After 24 hours, the culture medium was replaced with fresh culture medium containing different concentrations of the compound 9 solubilized in DMSO. After 72 hours, the cell viability was assayed by means of MTS assay according to the manufacturer's instructions. […] The formazan formed is determined via reading of the absorbance at 490 nm measured with an automated plate reader (Victor Wallac 2, Perkin Elmer). […] The results were calculated by subtracting the mean background value from the values obtained from each evaluation and were expressed as a control percentage (non-treated cells). […] At the end of the treatments, the cell viability was determined by means of MTS assay.

Question: COc1cc2c(cc1OC)CN(CC(=O)Nc1ccc3c(c1)/C(=C/c1cccs1)C(=O)N3)CC2 [compound 1, N-[(3Z)-(2-oxo-3-(thiophene-2-ylmethylene)-2,3-dihydro-1H-indol-5-yl]-2-(6,7-dimethoxy-3,4-dihydroisoquinol-2-(1H)-yl)-acetamide hydrochloride] was tested. Which cell viability [1] did it give?
Answer: significant reduction of cell viability

Question: And the cell viability ([2]; 10µM)?
Answer: no significant effect on cell viability

Question: What about the cell viability ([2]; 100 µM) of the same compound?
Answer: significant reduction in cell viability

Question: With Cc1ccc(S(=O)(=O)Nc2ccc3c(c2)/C(=C/c2cnc[nH]2)C(=O)N3)cc1 [compound 9, N-[(3Z)-3-(1H-imidazol-5-ylmethylidene)-2-oxo-2,3-dihydro-1H-indol-5-yl]-4-methylbenzenesulfonamide] as the compound, how does the cell viability ([3]; compound alone at 100 nM, 500 nM, 1 µM) read?
Answer: inhibits cell viability, in a concentration-dependent way

Question: What about the minimal effective concentration ([3]; Homo sapiens, U-87 MG, compound alone, read-out: concentration from which the effect on cell viability is significant) of the same compound?
Answer: ≥ 0.5 µM
